Reference: publication PMC9028714 (Journal of Personalized Medicine, 2022)

Experiments:
[1] = tested on: CYP2J2; set-up: method as in PMID 32157630; conditions: cited from earlier work
[2] = set-up: method as in PMID 33808739, PMID 30223963; conditions: cited from earlier work
[3] = Multivariable linear regression: phenotypic activity of CYP3A and P-gp vs AUC0–6h or C2h of apixaban and rivaroxaban; conditions: for observed variability of AUC0–6h predicted by the model: Table 3; for C2h, β (CI95%): Age 65–74 years / C2h, β (CI95%): Age 75–84 years / C2h, β (CI95%): Age >85 years: reference category <65 years; for C2h, β (CI95%): Gender, Female: reference category Male;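 on all read-outs here: outcome C2h is the drug concentration 2 h post-dose, with regression coefficient errors from a sandwich estimator after a Breusch–Pagan heteroscedasticity check and missing data excluded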
Protocol: Dependent variables (outcomes) for both drugs were defined as being the values of AUC0–6h and concentration 2 h after drug administration (C2h). […] The Breusch–Pagan test was used to detect a potential heteroscedasticity issue, and consistent standard errors of the regression coefficients were assessed with a sandwich estimator. […] In addition, association between dependent variables and predicted activity of CYP3A and P-gp from genotype were also adjusted for a pre-specified set of potential confounding factors (gender, CrCl, BMI, age, dose). Spearman’s correlation was used to assess the concordance between genotype and phenotype of CYP3A and P-gp. Missing data were excluded from the analysis.

[4] = Apixaban and rivaroxaban capillary blood concentrations (DBS, LC-MS/MS) in hospitalized patients; type: in vivo, human; conditions: concentrations normalized by the dosing regimen
Protocol: Comedications were systematically screened to record patients taking CYP3A4/5 and/or P-gp inhibitors and/or inducers using the Lexicomp drug interaction analysis tool and the Geneva Table of CYP substrates, inhibitors, and inducers. Adequacy of dosage was assessed according to the SmPC criteria (indication, age, CrCl, and weight).
The DBS concentrations were determined using a validated LC-MS/MS method.
After agitation during 10 min, 10 μL of the supernatant was injected into the LC-MS/MS system. Separation was performed with a Kinetex® C18 column (50 × 2.1 mm, 2.6 µm) from Phenomenex (Brechbühler, Schlieren, Switzerland) under gradient conditions. The mobile phase was composed of formic acid 0.1% in water and in acetonitrile. The total run time was 7 min. Detection of analytes was obtained in positive mode using multiple reaction monitoring (MRM). Instrument parameters were as follows: curtain gas = 40 psi, collision gas = high, IonSpray voltage = […], temperature = 550 °C, ion source gas 1 = 60 psi, ion source gas 2 = 60 psi.

[5] = Multivariable linear regression: genotype of CYP3A and P-gp vs AUC0–6h or C2h of apixaban and rivaroxaban; type: in vivo, human; conditions: for observed variability of AUC0–6h explained by the model: Table 4; for C2h, β (CI95%): Age 65–74 years / C2h, β (CI95%): Age 75–84 years / C2h, β (CI95%): Age >85 years: reference category <65 years; for C2h, β (CI95%): Gender, Female: reference category Male; for C2h, β (CI95%): Genotype ABCB1 1236C>T, Heterozygous for mutation / C2h, β (CI95%): Genotype ABCB1 1236C>T, Homozygous for mutation / C2h, β (CI95%): Genotype ABCB1 2677G>T, Heterozygous for mutation / C2h, β (CI95%): Genotype ABCB1 2677G>T, Homozygous for mutation / C2h, β (CI95%): Genotype ABCB1 3435C>T, Heterozygous for mutation / C2h, β (CI95%): Genotype ABCB1 3435C>T, Homozygous for mutation: reference category No mutation
Protocol: Genotyping of selected CYP3A4/5 and ABCB1 polymorphisms was carried out on QuantStudio^TM 12K Flex Real-Time (RT) PCR System with TaqMan® OpenArray^TM genotyping assays and TaqMan® MGB Probe Validated Single Nucleotide Polymorphism (SNP) Genotyping Assays (Applied Biosystems, Thermo Fisher Scientific, Waltham, MA, USA), respectively. These methods were previously described in detail in the literature. […] All SNPs of CYP3A4/5 integrated in the TaqMan® OpenArray^TM PGx Express Panel (Thermo Fisher Scientific, Waltham, MA, USA) were considered and are listed in Supplementary Table S1. Finally, raw genotyping data were processed with the TaqMan® Genotyper software (Thermo Fisher Scientific, Waltham, MA, USA) according to the manufacturer’s protocol.
AlleleTyper™ Software and translational tables (Thermo Fisher Scientific and PharmGKB, Stanford, CA, USA) were used to translate genetic pattern information from genotyping (SNPs) to pharmacogenomic gene-level star (*) nomenclature. Allele and genotype frequencies were determined, and Hardy–Weinberg equilibrium (HWE) was tested. […] The CYP3A activity predicted from the genotype combines the effects of CYP3A4 and CYP3A5 SNPs on enzyme activities, as listed in the PharmVar and PharmGKB databases. Patients were classified into poor metabolizer (PM), intermediate metabolizer (IM), normal metabolizer (NM), and ultra-rapid metabolizer (UM) according to the classification described by Andreu et al..
Missing data were excluded from the analysis.

[6] = tested on: CYP3A; set-up: method as in PMID 32157630; conditions: cited from earlier work
[7] = tested on: CYP2J2 and CYP1A2; set-up: method as in PMID 32157630; conditions: cited from earlier work
[8] = phenotype model, Table S3, reference category 10 mg od
[9] = genotype model, Table S4, reference category 10 mg od
[10] = genotype model, Table S4, reference category IM
[11] = phenotype model, Table S3, reference category 2.5 mg bid
[12] = genotype model, Table S4, reference category 2.5 mg bid

| observed variability of AUC0–6h predicted by the model ([3]; phenotype model) [%] | C2h, β (CI95%): ALAT, per unit ([3]; phenotype model, Table S3) | C2h, β (CI95%): CrCl, per unit ([3]; phenotype model, Table S3) | C2h, β (CI95%): Intercept ([3]; phenotype model, Table S3) | C2h, β (CI95%): MRmidazolam, per log10 ([3]; phenotype model, Table S3) | C2h, β (CI95%): Weight, per kg ([3]; phenotype model, Table S3) | C2h, β (CI95%): Age 65–74 years ([3]; phenotype model, Table S3) | C2h, β (CI95%): Age 75–84 years ([3]; phenotype model, Table S3) | C2h, β (CI95%): Age >85 years ([3]; phenotype model, Table S3) | C2h, β (CI95%): Gender, Female ([3]; phenotype model, Table S3) | inter-individual CV of blood concentrations ([4]; administered bid) [%] | observed variability of AUC0–6h explained by the model [5] | C2h, β (CI95%): ALAT, per unit ([5]; genotype model, Table S4) | C2h, β (CI95%): CrCl, per unit ([5]; genotype model, Table S4) | C2h, β (CI95%): Intercept ([5]; genotype model, Table S4) | C2h, β (CI95%): Age 65–74 years ([5]; genotype model, Table S4) | C2h, β (CI95%): Age 75–84 years ([5]; genotype model, Table S4) | C2h, β (CI95%): Age >85 years ([5]; genotype model, Table S4) | C2h, β (CI95%): Predicted phenotype from genotype CYP3A, PM [5, 10] | Structure (SMILES) | excreted by the kidney [2] | other results |
| --- | --- | --- | --- | --- | --- | --- | --- | --- | --- | --- | --- | --- | --- | --- | --- | --- | --- | --- | --- | --- | --- |
| 27 | 0.05 (−0.14 to 0.23) | −0.017(−0.49 to 0.34) | −77.74 (−161.1 to 5.63) | −8.35 (−30.17 to 13.47) | 0.23 (−0.18 to 0.63) | 15.15 (−0.06 to 30.37) | 10.55 (−12.65 to 33.75) | 7.97 (−15.72 to 31.67) | 1.91 (−13.03 to 16.84) | 41.5 | ~18% | 0.08 (−0.06 to 0.22) | −0.14 (−0.61 to 0.32) | −10.99 (−88.50 to 66.51) | 24.56 (8.41 to 40.71) | 25.66 (−1.56 to 52.88) | 19.86 (−9.35 to 49.08) | 24.72 (−8.3 to 57.73) | O=C(NC[C@H]1CN(c2ccc(N3CCOCC3=O)cc2)C(=O)O1)c1ccc(Cl)s1 [Rivaroxaban] | 66% | contribution of CYP2J2 to total clearance [1]: 14%; C2h, β (CI95%): Dose 15 mg bid [3, 8]: 41.5 (0.24 to 82.75); C2h, β (CI95%): Dose 15 mg od [3, 8]: 18.95 (−21.77 to 59.66); C2h, β (CI95%): Dose 20 mg od [3, 8]: 39.98 (−4.47 to 84.44); inter-individual CV of blood concentrations ([4]; administered od): 51.8%; C2h, β (CI95%): Weight, per kg ([5]; genotype model, Table S4): 0.46 (0.04 to 0.88); C2h, β (CI95%): Dose 15 mg bid [5, 9]: 60.99 (29.95 to 92.04); C2h, β (CI95%): Dose 15 mg od [5, 9]: 29.53 (−2.56 to 61.63); C2h, β (CI95%): Dose 20 mg od [5, 9]: 57.40 (22.52 to 92.28); C2h, β (CI95%): Predicted phenotype from genotype CYP3A, NM [5, 10]: 20.74 (1.20 to 40.28); C2h, β (CI95%): Gender, Female ([5]; genotype model, Table S4): 2.56 (−12.47 to 17.59); C2h, β (CI95%): Genotype ABCB1 1236C>T, Heterozygous for mutation ([5]; genotype model, Table S4): −16.43 (−46.63 to 13.77); C2h, β (CI95%): Genotype ABCB1 1236C>T, Homozygous for mutation ([5]; genotype model, Table S4): −1.63 (−39.30 to 36.03); C2h, β (CI95%): Genotype ABCB1 2677G>T, Heterozygous for mutation ([5]; genotype model, Table S4): 23.36 (−8.85 to 55.56); C2h, β (CI95%): Genotype ABCB1 2677G>T, Homozygous for mutation ([5]; genotype model, Table S4): 16.54 (−19.70 to 52.77); C2h, β (CI95%): Genotype ABCB1 3435C>T, Heterozygous for mutation ([5]; genotype model, Table S4): −8.53 (−32.11 to 15.04); C2h, β (CI95%): Genotype ABCB1 3435C>T, Homozygous for mutation ([5]; genotype model, Table S4): −12.17 (−32.48 to 8.14); share of metabolism CYP3A is responsible for [6]: 18% |
| 47 | 0.06 (−0.13 to 0.25) | −0.40 (−0.67 to −0.13) | −0.46 (−51.98 to 51.05) | 6.07 (−8.08 to 20.22) | −0.02 (−0.37 to 0.33) | 8.61 (−10.00 to 27.23) | 13.69 (−5.59 to 32.97) | 17.73 (−3.37 to 38.82) | 4.07 (−5.94 to 14.08) | 47.7 | approximately 40% | 0.07 (−0.17 to 0.32) | −0.48 (−0.75 to −0.21) | 80.68 (42.43 to 118.93) | 5.10 (−15.52 to 25.71) | 9.29 (−10.54 to 29.12) | 14.31 (−10.69 to 39.31) | −18.61 (−36.00 to −1.21) | COc1ccc(-n2nc(C(N)=O)c3c2C(=O)N(c2ccc(N4CCCCC4=O)cc2)CC3)cc1 [Apixaban] | 25–30% | decrease in CrCl with an effect comparable to P-gp phenoconversion NM to PM ([3]; according to the AUC0–6h model): 37.6 mL/min/1.73 m^2; C2h, β (CI95%): Dose 5 mg bid [3, 11]: 51.97 (41.16 to 62.78); C2h, β (CI95%): Dose 10 mg bid [3, 11]: 116.28 (80.44 to 152.12); C2h, β (CI95%): Dose 5 mg bid [5, 12]: 51.17 (37.82 to 64.51); C2h, β (CI95%): Dose 10 mg bid [5, 12]: 113.17 (81.73 to 145.52); C2h, β (CI95%): Gender, Female ([5]; genotype model, Table S4): 5.44 (−5.98 to 16.87); C2h, β (CI95%): Genotype ABCB1 1236C>T, Heterozygous for mutation ([5]; genotype model, Table S4): −1.26 (−23.09 to 20.57); C2h, β (CI95%): Genotype ABCB1 1236C>T, Homozygous for mutation ([5]; genotype model, Table S4): −9.35 (−36.76 to 18.06); C2h, β (CI95%): Genotype ABCB1 2677G>T, Heterozygous for mutation ([5]; genotype model, Table S4): 8.08 (−14.86 to 31.01); C2h, β (CI95%): Genotype ABCB1 2677G>T, Homozygous for mutation ([5]; genotype model, Table S4): 9.94 (−17.81 to 37.69); C2h, β (CI95%): Genotype ABCB1 3435C>T, Heterozygous for mutation ([5]; genotype model, Table S4): −7.52 (−24.64 to 9.60); C2h, β (CI95%): Genotype ABCB1 3435C>T, Homozygous for mutation ([5]; genotype model, Table S4): −2.70 (−18.04 to 12.65); contribution of CYP2J2 and CYP1A2 together to metabolism [7]: 6%; share of metabolism CYP3A is responsible for [6]: 15% |
